The target in one data set is T1, COX-1 (Homo sapiens, UniProt P23219).
T1 construct: host or cells: U-937 human lymphoma cells
The data set is described as follows: Assay for the COX-1 inhibitory activity using U-937 (PGE2 inhibition). The following applies: test compound 1 μM, U-937 human lymphoma cells, arachidonic acid substrate, PGE2 quantified; for inhibition at 1 µM: read-out: Cyclooxygenase (COX) Inhibition (%) COX-1 (1 μM). The class given is cell-based. On the procedure: The collected cells were diluted with HBSS (×1, Hank's balanced salt solution) to a concentration of 1×10^6 cells/ml. 1 ml of the dilute cell solution was placed into each well of 12-well plates. 5 μl of 1 μM solution of a test compound in DMSO and 5 μl of DMSO as a control were added to the wells. The wells were incubated in CO2 incubator at 37° C. for 15 minutes. Separately, 10 mM stock solution of arachidonic acid in ethanol was diluted ten times in ethanol to prepare 1 mM solution of arachidonic acid. Arachidonic acid acts as a substrate. 10 μl of the 1 mM solution of arachidonic acid was added to each well and incubated at CO2 incubator at 37° C. for 30 minutes. The cell solution of each well was placed in a centrifuge test tube and centrifuged at 10,000 rpm at 4° C. for 5 minutes. The concentration of PGE2 in the collected cells and the supernatant was quantified by means of a monoclonal kit (Cayman Chemicals). The percentages of PGE2 inhibition in a group of the test compound-treated cells in relation to a group of the DMSO-treated cells were calculated. Based on the calculated values, the COX-1 inhibitory activities were evaluated.
(§1) The percentages of the COX inhibition were calculated according to the following equation: % Inhibition=(concentration of PGE2 in test compound-untreated sample−concentration of PGE2 in test compound-treated sample)/(concentration of PGE2 in test compound-untreated sample)×100

Another data set deals with T2, COX-2 (Mus musculus, UniProt Q05769).
T2 construct: host or cells: RAW 264.7 cells, pre-treated with aspirin, then induced with interferon and LPS
T2 sequence (Q05769 18-604): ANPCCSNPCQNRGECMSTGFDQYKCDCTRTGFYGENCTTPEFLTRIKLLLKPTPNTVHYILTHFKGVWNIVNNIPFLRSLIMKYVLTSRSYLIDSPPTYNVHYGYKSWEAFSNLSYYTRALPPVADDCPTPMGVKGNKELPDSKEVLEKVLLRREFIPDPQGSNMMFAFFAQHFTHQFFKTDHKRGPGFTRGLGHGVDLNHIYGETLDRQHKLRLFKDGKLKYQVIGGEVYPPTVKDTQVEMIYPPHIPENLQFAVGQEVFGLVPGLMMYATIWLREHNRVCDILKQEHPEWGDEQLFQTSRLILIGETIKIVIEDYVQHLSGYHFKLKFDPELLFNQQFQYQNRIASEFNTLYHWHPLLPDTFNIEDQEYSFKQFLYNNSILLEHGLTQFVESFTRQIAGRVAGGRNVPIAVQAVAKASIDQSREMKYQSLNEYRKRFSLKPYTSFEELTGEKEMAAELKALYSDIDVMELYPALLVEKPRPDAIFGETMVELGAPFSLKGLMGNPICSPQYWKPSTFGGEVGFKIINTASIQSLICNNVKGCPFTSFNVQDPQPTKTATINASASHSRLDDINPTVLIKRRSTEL
The data set is described as follows: Assay for the COX-2 inhibitory activity using Raw 264.7 cell line (PGE2 inhibition). The class given is cell-based. The note with it: test compound 30 nM, RAW 264.7 cells, aspirin pre-treated, interferon + LPS 18 hours, PGE2 by EIA; for inhibition at 0.03 µM: RAW264.7, read-out: Cyclooxygenase (COX) Inhibition (%) COX-2 (30 nM). On the procedure:
Each well was treated with 250 μM of aspirin and incubated at 37° C. for 2 hours. After the culture media were replaced with new culture media, the new culture media were treated with a test compound (30 nM) and incubated for 30 minutes. Then, each well was treated with interferon ? (100 units/ml) and lipopolysaccharide (LPS, 100 ng/ml) and incubated for 18 hours. The culture media were transferred to other test tubes. The concentration of PGE2 was quantified by means of the EIA kit (Cayman Chemicals).
as §1

The results in this text go back to patent US7781592B2, “Thione derivative, method for the preparation thereof, and pharmaceutical composition containing the same” (CJ Cheiljedang Corporation, priority 2003, dated 2010).

T1 sequence (P23219 24-599): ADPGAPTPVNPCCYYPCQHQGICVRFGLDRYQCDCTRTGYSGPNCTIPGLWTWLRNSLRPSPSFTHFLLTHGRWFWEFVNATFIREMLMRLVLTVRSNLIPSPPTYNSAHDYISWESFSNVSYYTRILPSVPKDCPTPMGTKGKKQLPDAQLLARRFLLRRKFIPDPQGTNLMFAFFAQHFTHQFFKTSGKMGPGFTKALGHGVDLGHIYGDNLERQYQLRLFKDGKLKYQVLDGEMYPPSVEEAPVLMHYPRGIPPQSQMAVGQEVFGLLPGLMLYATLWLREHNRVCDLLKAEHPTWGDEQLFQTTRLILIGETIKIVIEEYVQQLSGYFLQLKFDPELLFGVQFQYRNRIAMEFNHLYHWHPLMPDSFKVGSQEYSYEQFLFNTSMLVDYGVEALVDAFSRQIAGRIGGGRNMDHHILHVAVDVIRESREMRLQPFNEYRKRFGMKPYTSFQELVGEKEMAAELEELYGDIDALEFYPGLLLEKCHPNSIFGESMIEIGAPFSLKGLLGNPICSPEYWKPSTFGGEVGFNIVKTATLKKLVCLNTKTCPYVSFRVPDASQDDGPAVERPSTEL

Take `Cc1ccccc1-c1c(-c2ccc(S(C)(=O)=O)cc2)ssc1=S` [Example 56, 5-(4-methanesulfonylphenyl)-4-o-toryl-[1,2]dithiol-3-thione]: the “Cyclooxygenase (COX) Inhibition (%) COX-1 (1 μM)” value on COX-1 is recorded as 20.6%. In addition, the “Cyclooxygenase (COX) Inhibition (%) COX-2 (30 nM)” value on COX-2 stood at 25.6%.

Regarding `CS(=O)(=O)c1ccc(-c2ssc(=S)c2-c2ccc(F)cc2F)cc1` [Example 63, 4-(2,4-difluorophenyl)-5-(4-methanesulfonylphenyl)-[1,2]dithiol-3-thione], the melting point was in the range of 148 to 149 °C. Besides, at COX-1, the inhibition at 1 µM came to 20.3%. For the same compound, the inhibition at 0.03 µM at COX-2 was found to be 21.3%.

`COc1ccc(-c2c(-c3ccc(S(C)(=O)=O)cc3)ssc2=S)cc1` [Example 43, 5-(4-methanesulfonylphenyl)-4-(4-methoxyphenyl)-[1,2]dithiol-3-thione] had a melting point of 220 to 222 °C. Also, the inhibition at 1 µM on COX-1 came out at 19.3%. In addition, on COX-2, the inhibition at 0.03 µM came to 38.4%.

Turning to `CCCOc1ccc(-c2c(-c3ccc(S(C)(=O)=O)cc3)ssc2=S)cc1` [Example 68, 5-(4-methanesulfonylphenyl)-4-(4-propoxyphenyl)-[1,2]dithiol-3-thione], the melting point was in the range of 177 to 178 °C. Besides, the inhibition at 1 µM at COX-1 was 25.5%. For the same compound, the inhibition at 0.03 µM at COX-2 amounted to 22.7%.

As to `CS(=O)(=O)c1ccc(-c2[nH][nH]c(=S)c2-c2ccc(Cl)c(Cl)c2)cc1` [Example 81, 4-(3,4-dichlorophenyl)-5-(4-methanesulfonylphenyl)-1,2-dihydropyrazole-3-thione], the melting point was 192 to 193 °C. The inhibition at 1 µM at COX-1 amounted to 24.9%. The inhibition at 0.03 µM at COX-2 came out at 24.6%.

For the compound `CS(=O)(=O)c1ccc(-c2[nH][nH]c(=S)c2-c2ccc(Cl)cc2)cc1` [Example 82, 4-(4-chlorophenyl)-5-(4-methanesulfonylphenyl)-1,2-dihydropyrazole-3-thione], the melting point was 211 to 213 °C. The inhibition at 1 µM at COX-1 was 24.3%. For the same compound, the inhibition at 0.03 µM at COX-2 was determined as 22.2%.

As to `CS(=O)(=O)c1ccc(-c2ssc(=S)c2-c2c(F)c(F)c(F)c(F)c2F)cc1` [Example 66, 5-(4-methanesulfonylphenyl)-4-pentafluorophenyl-[1,2]dithiol-3-thione], the “Cyclooxygenase (COX) Inhibition (%) COX-1 (1 μM)” value on COX-1 is reported as 28.2%. For the same compound, on COX-2, the “Cyclooxygenase (COX) Inhibition (%) COX-2 (30 nM)” value stood at 19.2%.

On to `CS(=O)(=O)c1ccc(-c2ssc(=S)c2-c2ccc(Cl)c(Cl)c2)cc1` [Example 46, 4-(3,4-dichlorophenyl)-5-(4-methanesulfonylphenyl)-[1,2]dithiol-3-thione], for which, at COX-1, the inhibition at 1 µM was determined as 24.6%. Further, at COX-2, the inhibition at 0.03 µM stood at 21%.

As to `CS(=O)(=O)c1ccc(-c2ssc(=S)c2-c2ccc(Cl)cc2Cl)cc1` [Example 58, 4-(2,4-dichlorophenyl)-5-(4-methanesulfonylphenyl)-[1,2]dithiol-3-thione], the melting point lay within 176 to 177 °C. Besides, the inhibition at 1 µM on COX-1 is 24.2%. Besides, at COX-2, the inhibition at 0.03 µM was determined as 20.1%.

In turn, `CS(=O)(=O)c1ccc(-c2ssc(=S)c2-c2ccccc2[N+](=O)[O-])cc1` [Example 54, 5-(4-methanesulfonylphenyl)-4-(2-nitrophenyl)-[1,2]dithiol-3-thione] registered a melting point of 170 to 171 °C. Besides, on COX-1, the inhibition at 1 µM is 22.4%. The inhibition at 0.03 µM on COX-2 stood at 26.3%.

In the case of `CCOc1ccc(-c2c(-c3ccc(S(C)(=O)=O)cc3)ssc2=S)cc1` [Example 39, 4-(4-ethoxyphenyl)-5-(4-methanesulfonylphenyl)-[1,2]dithiol-3-thione], the melting point fell in the range of 210 to 212 °C. Further, the inhibition at 1 µM at COX-1 was found to be 15%. The inhibition at 0.03 µM at COX-2 stood at 36.6%.

For `CS(=O)(=O)c1ccc(-c2ssc(=S)c2-c2ccncc2)cc1` [Example 47, 5-(4-methanesulfonylphenyl)-4-(pyridine-4-yl)-[1,2]dithiol-3-thione], the melting point was 245 to 247 °C. Also, the inhibition at 1 µM on COX-1 is 22.5%. Moreover, the inhibition at 0.03 µM on COX-2 turned out to be 21.4%.

For the compound `COc1cccc(-c2c(-c3ccc(S(C)(=O)=O)cc3)ssc2=S)c1` [Example 53, 5-(4-methanesulfonylphenyl)-4-(3-methoxyphenyl)-[1,2]dithiol-3-thione], the melting point lay in the range of 212 to 213 °C. Moreover, the inhibition at 1 µM on COX-1 turned out to be 26.7%. Besides, the inhibition at 0.03 µM at COX-2 stood at 21.6%.

`CS(=O)(=O)c1ccc(-c2ssc(=S)c2-c2ccc(Br)cc2)c(Cl)c1` [Example 72, 4-(4-bromophenyl)-5-(2-chloro-4-methanesulfonylphenyl)-[1,2]dithiol-3-thione] registered a melting point of 194 to 195 °C. Also, on COX-1, the inhibition at 1 µM stood at 28.1%. In addition, on COX-2, the inhibition at 0.03 µM came out at 19.3%.

For the compound `Cc1ccc(-c2c(-c3ccc(F)c(F)c3)ssc2=S)cc1` [Example 74, 5-(3,4-difluorophenyl)-4-p-toryl-[1,2]dithiol-3-thione], the melting point fell in the range of 140 to 142 °C. The inhibition at 1 µM at COX-1 came out at 26.5%. In addition, the inhibition at 0.03 µM on COX-2 stood at 19.2%.

For `COc1ccc(-c2c(-c3ccc(S(C)(=O)=O)c(F)c3)ssc2=S)cc1` [Example 78, 5-(3-fluoro-4-methanesulfonylphenyl)-4-(4-methoxyphenyl)-[1,2]dithiol-3-thione], the inhibition at 1 µM on COX-1 is 18.5%. The inhibition at 0.03 µM on COX-2 stood at 32.5%.

For `Cc1ccc(-c2c(-c3ccc(S(C)(=O)=O)cc3Cl)ssc2=S)cc1` [Example 71, 5-(2-chloro-4-methanesulfonylphenyl)-4-p-toryl-[1,2]dithiol-3-thione], the “Cyclooxygenase (COX) Inhibition (%) COX-1 (1 μM)” value on COX-1 stood at 20.3%. Further, the “Cyclooxygenase (COX) Inhibition (%) COX-2 (30 nM)” value on COX-2 was 21.0%.

For `CS(=O)(=O)c1ccc(-c2ssc(=S)c2-c2cccnc2)cc1` [Example 48, 5-(4-methanesulfonylphenyl)-4-(pyridine-3-yl)-[1,2]dithiol-3-thione], on COX-1, the inhibition at 1 µM is 23.6%. Further, the inhibition at 0.03 µM on COX-2 turned out to be 24.2%.

With `Cc1ccc(-c2c(-c3ccc(S(C)(=O)=O)c(F)c3)ssc2=S)cc1` [Example 77, 5-(3-fluoro-4-methanesulfonylphenyl)-4-p-toryl-[1,2]dithiol-3-thione], the “Cyclooxygenase (COX) Inhibition (%) COX-1 (1 μM)” value at COX-1 was found to be 15.2%. Also, the “Cyclooxygenase (COX) Inhibition (%) COX-2 (30 nM)” value on COX-2 is 31.5%.

For the compound `CS(=O)(=O)c1ccc(-c2ssc(=S)c2-c2ccc3ccccc3c2)cc1` [Example 65, 5-(4-methanesulfonylphenyl)-4-(naphthalene-2-yl)-[1,2]dithiol-3-thione], the inhibition at 1 µM on COX-1 was 22.6%. In addition, the inhibition at 0.03 µM on COX-2 stood at 20.1%.

Consider `Cc1ccc(-c2c(-c3ccc(S(C)(=O)=O)cc3)ssc2=S)cc1` [Example 41, 5-(4-methanesulfonylphenyl)-4-p-toryl-[1,2]dithiol-3-thione], for which the “Cyclooxygenase (COX) Inhibition (%) COX-1 (1 μM)” value on COX-1 is 20.1%. Further, the “Cyclooxygenase (COX) Inhibition (%) COX-2 (30 nM)” value on COX-2 is 24.5%.

As to `Cc1ccc(-c2c(-c3ccc(S(C)(=O)=O)cc3)[nH][nH]c2=S)cc1` [Example 80, 5-(4-methanesulfonylphenyl)-4-p-toryl-[1,2]dihydropyrazole-3-thione], the “Cyclooxygenase (COX) Inhibition (%) COX-1 (1 μM)” value at COX-1 is given as 25.6%. At COX-2, the “Cyclooxygenase (COX) Inhibition (%) COX-2 (30 nM)” value was 23.2%.

In the case of `CS(=O)(=O)c1ccc(-c2ssc(=S)c2-c2ccccn2)cc1` [Example 49, 5-(4-methanesulfonylphenyl)-4-(pyridine-2-yl)-[1,2]dithiol-3-thione], at COX-1, the inhibition at 1 µM worked out at 28%. On COX-2, the inhibition at 0.03 µM worked out at 19.5%.
